Assay results as given in the RepoRT retention time repository (doi:10.1016/j.foodchem.2021.129757).

Legend:
Conditions in all cases: stereoisomer not certain
[1] = RP, 50 × 0.5 mm, 2.7 µm, 35 °C, 0.01 mL/min, estimated dead time 0.62 min; A: water + 0.1% formic acid, pH 3; B: acetonitrile + 0.1% formic acid, pH 3; gradient (min/%B) 0/5 12/95 14/95 16/5
[2] = RP, Phenomenex Luna Omega Polar C18, 100 × 2.1 mm, 1.6 µm, 40 °C, 0.5 mL/min, estimated dead time 0.44 min; A: water + 0.1% formic acid + 10 mM ammonium formate; B: acetonitrile; gradient (min/%B) 0/5 8/20 10/100 12/100 12.1/5 14/5
[3] = RP, Phenomenex Synergi Hydro-RP, 150 × 2 mm, 4 µm, 30 °C, 0.5 mL/min, estimated dead time 0.6 min; A: water + 0.1% formic acid, pH 3; B: acetonitrile + 0.1% formic acid, pH 3; gradient (min/%B) 0/5 1/5 35/45 40/100 45/100
[4] = RP, 100 × 0.5 mm, 2.7 µm, 45 °C, 0.015 mL/min, estimated dead time 0.83 min; A: water + 0.9% formic acid; B: acetonitrile + 0.9% formic acid; gradient (min/%B) 0/1 0.5/1 4/95 4.5/1 5/1
[5] = RP, 150 × 2.1 mm, 2.6 µm, 40 °C, 0.35 mL/min, estimated dead time 0.94 min; A: water + 0.1% formic acid, pH 3; B: acetonitrile + 0.1% formic acid, pH 3; gradient (min/%B) 0/0 1/0 12.5/100 14/100 14.2/0 15/0
[6] = RP, Phenomenex Luna Omega Polar C18, 100 × 2.1 mm, 1.6 µm, 40 °C, 0.5 mL/min, estimated dead time 0.44 min; A: water + 0.5% formic acid; B: acetonitrile + 0.5% formic acid; gradient (min/%B) 0/5 3/50 3.1/100 5/100 5.1/5 7/5
[7] = RP, Waters ACQUITY UPLC BEH C18, 100 × 2.1 mm, 1.7 µm, 65 °C, 0.4 mL/min, estimated dead time 0.55 min; A: water + 0.1% formic acid, pH 3; B: 80% acetonitrile + 20% acetone + 0.1% formic acid, pH 3; gradient (min/%B) 0/0 5/100 5.5/0 6/0
[8] = RP, 150 × 2.1 mm, 2.6 µm, 40 °C, 0.35 mL/min, estimated dead time 0.94 min; A: water + 0.1% formic acid, pH 3; B: acetonitrile + 0.1% formic acid, pH 3; gradient (min/%B) 0/0 1/5 7/45 8.5/80 10.5/80 11/5 12/5
[9] = RP, Agilent InfinityLab Poroshell 120 EC-C18, 100 × 3 mm, 2.7 µm, 25 °C, 0.4 mL/min, estimated dead time 1.1 min; A: water + 0.1% formic acid, pH 3; B: acetonitrile + 0.1% formic acid, pH 3; gradient (min/%B) 0/5 10/25 20/40 24/90 25/90 26/5 30/5
[10] = RP, Waters ACQUITY UPLC HSS T3, 100 × 2.1 mm, 1.8 µm, 30 °C, 0.4 mL/min, estimated dead time 0.55 min; A: water + 0.1% formic acid, pH 3; B: acetonitrile + 0.1% formic acid, pH 3; gradient (min/%B) 0/0 2/0 15/100 22/100 22.1/0 26/0
[11] = Other, Phenomenex Kinetex PFP, 100 × 4.6 mm, 5 µm, 45 °C, 0.6 mL/min, estimated dead time 1.8 min; A: water + 0.1% trifluoroacetic acid, pH 2; B: methanol; gradient (min/%B) 0/40 20/72 21/40
[12] = RP, Waters ACQUITY UPLC BEH Shield RP18, 100 × 2.1 mm, 1.7 µm, 30 °C, 0.6 mL/min, estimated dead time 0.37 min; A: water + 0.1% formic acid, pH 3; B: acetonitrile + 0.1% formic acid, pH 3; gradient (min/%B) 0/0 2/0 7/10 22/95 22.1/0 26/0
[13] = RP, Agilent ZORBAX Eclipse XDB-C18, 100 × 2.1 mm, 1.8 µm, 50 °C, 0.4 mL/min, estimated dead time 0.55 min; A: water + 0.1% formic acid, pH 3; B: methanol + 0.1% formic acid, pH 3; gradient (min/%B) 0/2 10/100 14.5/100 14.51/2 16.5/2
[14] = RP, Waters ACQUITY UPLC BEH Shield RP18, 150 × 2.1 mm, 1.7 µm, 40 °C, 0.4 mL/min, estimated dead time 0.83 min; A: water + 0.1% formic acid, pH 3; B: acetonitrile + 0.1% formic acid, pH 3; gradient (min/%B) 0/0 30/50 31/100 37/100 37.1/0
[15] = RP, Phenomenex Luna C18, 150 × 4.6 mm, 3 µm, 25 °C, 0.5 mL/min, estimated dead time 3.2 min; A: water + 0.1% formic acid, pH 3; B: acetonitrile + 0.1% formic acid, pH 3; gradient (min/%B) 0/0 30/30 35/40 50/80 52/80 60/0 65/0
[16] = RP, Agilent ZORBAX RRHD Eclipse Plus C18, 50 × 2.1 mm, 1.8 µm, 30 °C, 0.4 mL/min, estimated dead time 0.28 min; A: water + 0.1% formic acid, pH 3; B: acetonitrile + 0.1% formic acid, pH 3; gradient (min/%B) 0/1 5/10 8/25 9.1/99 10/99 12/1
[17] = RP, Merck LiChrospher RP-18, 250 × 4 mm, 5 µm, 35 °C, 0.3 mL/min, estimated dead time 6.7 min; A: water + 0.5% formic acid; B: acetonitrile + 0.5% formic acid; gradient (min/%B) 0/5 10/5 30/15 45/20 65/20 95/54 110/63 115/5 135/5
[18] = RP, Agilent ZORBAX RRHD Eclipse Plus C18, 50 × 2.1 mm, 1.8 µm, 30 °C, 0.4 mL/min, estimated dead time 0.28 min; A: water + 0.1% formic acid, pH 3; B: acetonitrile + 0.1% formic acid, pH 3; gradient (min/%B) 0/1 5/10 8/25 9.1/99 10/99 12/99
[19] = RP, Waters Atlantis T3, 100 × 2.1 mm, 3 µm, 40 °C, 0.3 mL/min, estimated dead time 0.73 min; A: water + 0.1% trifluoroacetic acid, pH 2; B: acetonitrile + 0.1% trifluoroacetic acid, pH 2; gradient (min/%B) 0/10 1/10 6/40 7/50 8/50 14/70 16/80 20/10 25/10
[20] = RP, Waters ACQUITY UPLC HSS T3, 100 × 2.1 mm, 50 °C; A: water + 0.1% formic acid, pH 3; B: 30% methanol + 70% acetonitrile + 0.1% formic acid, pH 3; gradient (min/%B) 0/5 1/8 2/15 3/40 4/70 4.5/100 5/100 6.4/100 6.6/5 6.8/5 7/5
[21] = RP, Phenomenex Synergi Hydro-RP, 250 × 2 mm, 4 µm, 25 °C, 0.2 mL/min, estimated dead time 2.5 min; A: water + 0.1% formic acid, pH 3; B: acetonitrile + 0.1% formic acid, pH 3; gradient (min/%B) 0/0.5 7/0.5 12/12.5 25/16.3 47/35 48/65 50/65 50.1/0.5
[22] = RP, Phenomenex Kinetex EVO C18, 100 × 2.1 mm, 2.6 µm, 40 °C, 0.4 mL/min, estimated dead time 0.55 min; A: water + 0.2% formic acid; B: acetonitrile + 0.2% formic acid; gradient (min/%B) 0/5 0.5/5 7/95 8/95 8.5/5 12/5

Row | Compound | LC retention time [1] [min] | LC retention time [2] [min] | LC retention time [3] [min] | LC retention time [4] [min] | LC retention time [5] [min] | LC retention time [6] [min] | LC retention time [7] [min] | LC retention time [8] [min] | LC retention time [9] [min] | LC retention time [10] [min] | LC retention time [11] [min] | LC retention time [12] [min] | LC retention time [13] [min] | LC retention time [14] [min] | LC retention time [15] [min] | LC retention time [16] [min] | LC retention time [17] [min] | LC retention time [18] [min] | LC retention time [19] [min] | other results
1 | COc1cc(-c2oc3cc(O)cc(O)c3c(=O)c2O)ccc1O [Isorhamnetin] | 4.51 | 9.84 | 27.4 | 3.24 |  | 3.7 |  |  | 17.6 | 11.7 |  | 16.4 | 7.05 | 24 | 42.5 | 9.19 | 98.9 | 9.29 |  | 
2 | O=c1cc(-c2ccc(O)c(O)c2)oc2cc(O)cc(O)c12 [Luteolin] | 5.79 | 9.48 | 22.6 | 2.97 | 7.14 | 3.57 |  | 7.52 | 17.1 | 10.8 | 18.6 | 15.3 | 6.42 | 20.2 | 42.1 |  | 91.1 |  | 9.3 | LC retention time [20]: 3.75 min; LC retention time [21]: 47 min
3 | O=C(CCc1ccc(O)cc1)c1c(O)cc(O)cc1O [Phloretin] | 6 | 9.58 | 25.8 | 3.13 | 7.51 |  | 2.85 | 7.9 | 16.7 | 11.4 |  | 15.6 | 6.47 | 21.3 | 41.2 | 9.14 | 94.8 | 9.3 | 10 | LC retention time [21]: 50.6 min
4 | O=c1c(OS(=O)(=O)O)c(-c2ccc(O)c(O)c2)oc2cc(O)cc(O)c12 [Quercetin 3-O-sulfate] |  | 9.25 | 20.2 | 2.82 |  | 2.93 |  |  | 12.6 | 10.5 | 14.7 | 19.4 | 5.84 | 25.5 | 46.2 | 7.73 |  | 8.12 |  | LC retention time [22]: 6.76 min
5 | O=c1c(O)c(-c2ccc(OS(=O)(=O)O)c(O)c2)oc2cc(O)cc(O)c12 [Quercetin 4-O-sulfate] |  | 9.3 | 20.7 | 2.82 |  | 2.93 |  |  | 12.9 | 10.6 | 14.9 | 19.5 |  |  | 47.6 |  |  |  |  | 
6 | COc1cc(C=O)ccc1O [Vanillin] | 3.51 | 5.38 |  | 2.71 |  | 2.44 | 2.03 |  | 8.04 | 9.32 | 6.9 | 10.1 | 4.06 | 7.83 | 21.1 |  | 54.7 |  |  | LC retention time [20]: 3.46 min

Second part, led by results:

Row | LC retention time [1] [min] | LC retention time [2] [min] | LC retention time [3] [min] | LC retention time [4] [min] | LC retention time [5] [min] | LC retention time [6] [min] | LC retention time [7] [min] | LC retention time [8] [min] | LC retention time [9] [min] | LC retention time [10] [min] | LC retention time [11] [min] | LC retention time [12] [min] | LC retention time [13] [min] | LC retention time [14] [min] | LC retention time [15] [min] | LC retention time [16] [min] | LC retention time [17] [min] | LC retention time [18] [min] | LC retention time [19] [min] | Compound | other results
7 | 6.06 | 9.62 | 25.7 | 3.17 | 7.65 | 3.49 | 2.84 | 8.03 | 16.5 | 11.5 | 18 | 16.1 | 6.56 | 22.9 | 41.5 |  |  |  |  | O=c1c(-c2ccc(O)cc2)coc2cc(O)cc(O)c12 [Genistein] | 
8 | 4.65 | 8.96 | 17.3 | 2.56 |  |  |  |  | 10.6 | 9.46 | 9.02 | 13 | 5.22 | 13 | 26.7 |  |  |  | 7.79 | CC1OC(OC2C(Oc3cc(O)c4c(c3)OC(c3ccc(O)cc3)CC4=O)OC(CO)C(O)C2O)C(O)C(O)C1O (configuration not stated) [Naringin] | 
9 | 4.6 | 8.28 | 15.8 | 2.44 |  | 2.49 |  |  | 10.2 | 9.05 |  | 12.6 | 4.86 | 12 | 23 |  |  |  | 7.34 | CC1OC(OC2C(O)C(OCCc3ccc(O)c(O)c3)OC(CO)C2OC(=O)C=Cc2ccc(O)c(O)c2)C(O)C(O)C1O (configuration not stated) [Verbascoside] | LC retention time [22]: 4.84 min
